The text below walks through data of ChEMBL document CHEMBL2074519, “Molecular evidence and functional expression of a novel drug efflux pump (ABCC2) in human corneal epithelium and rabbit cornea and its role in ocular drug efflux” (Int J Pharm, 2006).

Molecules are shown by their SMILES.

Data set [1] concerns the target T1, ATP-binding cassette sub-family C member 2 (Homo sapiens, UniProt Q92887). Briefly: TP_TRANSPORTER: increase cell accumulation of erythromycin in hMRP2-expressing MDCK2 cells. In kind it is functional, cell-based. As to conditions: dog, mdck-ii.
For data set [2], the target named is T1, ATP-binding cassette sub-family C member 2. Description: TP_TRANSPORTER: increase cell accumulation of cyclosporine-A in hMRP2-expressing MDCK2 cells. In kind it is functional, cell-based. The following applies: dog, mdck-ii.

T1 sequence (Q92887 whole entry): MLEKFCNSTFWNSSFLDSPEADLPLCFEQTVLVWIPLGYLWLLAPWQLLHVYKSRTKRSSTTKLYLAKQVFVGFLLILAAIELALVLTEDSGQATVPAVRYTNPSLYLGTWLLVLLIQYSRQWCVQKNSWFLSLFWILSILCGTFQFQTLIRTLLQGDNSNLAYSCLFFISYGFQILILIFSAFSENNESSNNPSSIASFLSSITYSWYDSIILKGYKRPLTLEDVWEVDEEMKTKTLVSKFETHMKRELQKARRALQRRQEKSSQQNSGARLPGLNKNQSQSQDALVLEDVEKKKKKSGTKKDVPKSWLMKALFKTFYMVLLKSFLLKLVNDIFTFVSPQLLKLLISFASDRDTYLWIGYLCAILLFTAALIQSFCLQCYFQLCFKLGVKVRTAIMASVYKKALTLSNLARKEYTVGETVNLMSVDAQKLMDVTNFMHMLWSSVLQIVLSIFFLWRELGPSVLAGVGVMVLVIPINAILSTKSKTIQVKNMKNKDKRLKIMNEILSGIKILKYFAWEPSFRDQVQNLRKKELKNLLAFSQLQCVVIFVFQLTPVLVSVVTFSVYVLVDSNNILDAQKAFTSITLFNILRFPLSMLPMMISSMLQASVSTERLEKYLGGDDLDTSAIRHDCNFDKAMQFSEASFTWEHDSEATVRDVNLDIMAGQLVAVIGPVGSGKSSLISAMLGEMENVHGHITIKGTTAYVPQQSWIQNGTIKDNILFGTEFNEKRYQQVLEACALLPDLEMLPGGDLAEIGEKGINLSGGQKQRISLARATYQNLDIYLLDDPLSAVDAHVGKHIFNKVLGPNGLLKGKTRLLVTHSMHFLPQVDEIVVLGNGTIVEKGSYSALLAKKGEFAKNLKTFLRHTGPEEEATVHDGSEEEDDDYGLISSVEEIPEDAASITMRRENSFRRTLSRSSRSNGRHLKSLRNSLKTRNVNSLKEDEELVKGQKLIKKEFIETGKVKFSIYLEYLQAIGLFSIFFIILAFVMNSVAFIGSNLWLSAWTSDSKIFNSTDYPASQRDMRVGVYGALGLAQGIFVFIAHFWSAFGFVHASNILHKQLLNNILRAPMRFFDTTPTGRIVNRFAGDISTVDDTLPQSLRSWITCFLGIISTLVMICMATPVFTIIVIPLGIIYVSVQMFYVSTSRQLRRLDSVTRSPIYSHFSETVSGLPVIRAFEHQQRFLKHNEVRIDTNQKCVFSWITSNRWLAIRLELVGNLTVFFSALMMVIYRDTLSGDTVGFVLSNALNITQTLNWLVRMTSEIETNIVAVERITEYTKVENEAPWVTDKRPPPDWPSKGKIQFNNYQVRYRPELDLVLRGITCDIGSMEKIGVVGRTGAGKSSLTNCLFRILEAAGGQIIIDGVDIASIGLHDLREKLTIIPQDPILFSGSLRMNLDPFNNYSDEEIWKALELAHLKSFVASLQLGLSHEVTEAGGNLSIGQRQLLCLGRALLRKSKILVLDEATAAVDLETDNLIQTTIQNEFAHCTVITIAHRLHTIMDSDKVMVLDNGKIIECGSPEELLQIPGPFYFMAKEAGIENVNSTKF

As for `CN(C)C(=O)CCSC(SCCC(=O)O)c1cccc(/C=C/c2ccc3ccc(Cl)cc3n2)c1` (configuration not stated) [MK-571], the Activity came to 195% in data set [1] and 156% in data set [2].
